Assays:
[1] = Binding affinity at TXA2 receptor by measuring its ability to displace [3H]U-46619 from guinea pig platelets
[2] = Inhibition of the thromboxane A2 receptor assayed by binding to guinea pig platelets using [3H]U-46619 as radioligand
[3] = target: Thromboxane-A synthase (Bos taurus); assay: Inhibitory effect against thromboxane A2 synthase binding to bovine platelets
[4] = Compound was tested for its inhibitory activity against TXA2 synthase obtained from bovine platelet microsomes
[5] = Compound was tested for its binding affinity at Thromboxane A2 receptor by measuring its ability to displace [3H]U-46619 from guinea pig platelets

| Compound | Ki [1] | Ki [2] | IC50 [3] | IC50 [4] | Ki [5] |
| --- | --- | --- | --- | --- | --- |
| O=C(O)c1ccc2c(c1)C(SCCNC(=S)NCc1ccccc1)c1ccccc1CO2 (stereo not given) | 6.1 nM | 6.1 nM | – | – | – |
| O=C(O)c1ccc2c(c1)OCc1ccccc1C2SCCNS(=O)(=O)c1ccccc1 (stereo not given) | – | – | 370 nM | 370 nM | – |
| O=C(NCCSC1c2ccccc2COc2ccc(C(=O)O)cc21)Nc1ccccc1 (stereo not given) | – | – | 830 nM | 830 nM | – |
| O=C(O)c1ccc2c(c1)C(SCCNS(=O)(=O)c1cccc([N+](=O)[O-])c1)c1ccccc1CO2 (stereo not given) | 14 nM | 14 nM | – | – | – |
| O=C(O)c1ccc2c(c1)C(SCCNS(=O)(=O)c1ccccc1)c1ccccc1CC2 (stereo not given) | 30 nM | 30 nM | – | – | – |
| O=C(O)c1ccc2c(c1)C(SCCNS(=O)(=O)c1ccccc1)c1cc(Br)ccc1CO2 (stereo not given) | – | 6.8 nM | – | – | 6.8 nM |
| O=C(O)c1ccc2c(c1)C(SCCNS(=O)(=O)c1ccc3ccccc3c1)c1ccccc1CO2 (stereo not given) | 14 nM | 14 nM | – | – | – |
| Cc1ccsc1C(=O)NCCSC1c2ccccc2COc2ccc(C(=O)O)cc21 (stereo not given) | 10 nM | 10 nM | – | – | – |
| COc1ccc(S(=O)(=O)NCCSC2c3ccccc3COc3ccc(C(=O)O)cc32)cc1 (stereo not given) | – | – | – | – | 17 nM |
| O=C(NCCSC1c2ccccc2COc2ccc(C(=O)O)cc21)OCc1ccccc1 (stereo not given) | – | 7.7 nM | – | – | – |
| O=C(O)c1cccc(C(SCCNS(=O)(=O)c2ccccc2)c2ccccc2)c1 (stereo not given) | 77 nM | 77 nM | – | – | – |
| O=C(O)c1ccc2c(c1)C(SCCNC(=O)c1ccccc1)c1ccccc1CO2 (stereo not given) | – | 44 nM | – | – | – |
| COc1cc(C(=O)NCCSC2c3ccccc3COc3ccc(C(=O)O)cc32)cc(OC)c1OC (stereo not given) | 92 nM | 92 nM | – | – | – |
| O=C(O)c1ccc2c(c1)C(SCCNC(=O)c1ccccc1O)c1ccccc1CO2 (stereo not given) | – | 5.1 nM | – | – | 5.1 nM |
| O=C(O)c1ccc2c(c1)C(SCCNS(=O)(=O)c1cccs1)c1ccccc1CO2 (stereo not given) | – | 5.7 nM | – | – | 5.7 nM |
| Cc1ccc(S(=O)(=O)NCCSC2c3ccccc3COc3ccc(C(=O)O)cc32)cc1 (stereo not given) | – | 27 nM | – | – | 27 nM |
| O=C(O)c1ccc2c(c1)C(SCCNS(=O)(=O)c1ccccc1)c1ccccc1C=C2 (stereo not given) | – | 25 nM | – | – | 25 nM |
| O=C(O)c1ccc2c(c1)C(SCCNS(=O)(=O)c1ccc(C(F)(F)F)cc1)c1ccccc1CO2 (stereo not given) | – | 20 nM | – | – | 20 nM |
| O=C(O)c1ccc2c(c1)C(SCCNS(=O)(=O)c1ccccc1[N+](=O)[O-])c1ccccc1CO2 (stereo not given) | – | 15 nM | – | – | 15 nM |

— BindingDB's records for doi:10.1021/jm00096a016 (Kyowa Hakko Kogyo, 1992)
